Measurements taken from article PMC7248880, “Preclinical Incorporation Dosimetry of [^18F]FACH—A Novel ^18F-Labeled MCT1/MCT4 Lactate Transporter Inhibitor for Imaging Cancer Metabolism with PET” (Molecules, 2020).

Test: Whole-body PET/CT distribution of activity
Type: in vivo, piglets
Experimental: Early accumulation in the bone structures might be related to defluorination. At later time points, activity also accumulated in the gall bladder and the urinary bladder.
Three piglets (age: ~6 weeks, weight: ~13–15 kg) were fasted on the day of imaging and received an intranuscular. injection of 1 mL azaperone and 4 mL ketamine to introduce anesthesia. […] During narcosis, the animals maintained spontaneous respiration and no mandatory ventilation was applied. The subjects were sequentially imaged after an iv injection (contralateral ear vein) of 156 ± 54 MBq [^18F]FACH (0.63 ± 0.49 µg) in a PET/CT system (Biograph16, SIEMENS, Erlangen, Germany). The piglets were positioned prone with legs alongside the body on a custom-made plastic trough including a piglet head-holder (Figure 5). The PET acquisition was divided into a sequential (4 × 9 min, 3 × 12 min) and a static part (1 × 24 min, 1 × 30 min, 1 × 36 min), each of which was preceded by a low-dose CT to acquire structural data for attenuation correction (AC) and anatomical orientation (Figure 6). Post mortem, the urine was collected by bladder punctuation, weighted, and divided into three 1 mL samples for activity measurements in a gamma-counter (Packard Cobra II 5003 Auto Gamma Counting System, GMI, Ramsey, MN, USA).
The image data were analyzed with ROVER (ABX, Radeberg, Germany; v. 3.0.46h). […]

CCCN(CCC[18F])c1ccc(/C=C(\C#N)C(=O)O)c(OC)c1 [[^18F]FACH, (E)-2-cyano-3-{4-[(3-[^18F]fluoropropyl)(propyl)amino]-2-methoxyphenyl}acrylic acid]
distribution of activity (organs with high uptake) (one representative animal, PET at different times p.i.): high uptake in the liver, pancreas, small intestines, and spleen
route of excretion indicated by PET (rapid uptake in liver, later gall bladder): hepatobiliary excretion
